Laboratory results taken from patent publication US8507411B2, “Neoglycorandomization and digitoxin analogs” (priority 2004, dated 2013).
Like-named read-outs stand apart in the source and are kept apart here.

What was measured:
Hep3B = assay: High-throughput calcein AM cytotoxicity assay, Hep3B; type: cell-based, human; conditions: Hep 3B cells; read-out: IC50, Hep 3B
Excerpt: (§1) Standard errors are depicted with error bars.

A549 = assay: High-throughput calcein AM cytotoxicity assay, A549; type: cell-based, human; conditions: A549 cells; read-out: IC50, A549
Excerpt: as §1

NCI/ADR-RES = assay: cells; type: cell-based, human; conditions: NCI/ADR-RES cells; read-out: IC50, NCI/ADR-RES
Excerpt: (§2) In the assay, live cells were distinguished by the presence of a ubiquitous intracellular enzymatic activity which converts the non-fluorescent cell-permeable molecule calcein AM to the intensely fluorescent molecule calcein, which is retained within live cells. The IC50 value for each library member represents at least six replicates of dose-response experiments conducted over five concentrations using two-fold dilutions. […] Standard errors are depicted with error bars. Numerical values and corresponding error values can be found in Table 4. Du145: […]; MCF7: human breast carcinoma; HCT-116: human colon carcinoma, Hep3B: human liver carcinoma; SF-268: human CNS glioblastoma; SK-OV-3: human ovary adenocarcinoma; NCI-H460: human lung carcinoma; A549: human lung adenocarcinoma; NCI/ADR-RES: human breast carcinoma; NmuMG: mouse mammary normal epithelial.
(§3) Cell Culture: All cell lines except NmuMG were maintained in RPMI 1640 medium from InVitrogen (Cat No. 11875-085) supplemented with 10% w/v fetal bovine serum (FBS) from ICN (Cat No. 2916154) and penicillin-streptomycin (PS) (100 U/mL and 100 μg/mL) from InVitrogen (Cat No. 15140-122). NmuMG cells were maintained in DMEM medium from InVitrogen (Cat No. 11965-084) supplemented with 10% w/v fetal bovine serum (FBS) from ICN (Cat No. 2916154), 10 μg/ml insulin (InVitrogen Cat No 12585-014), and penicillin-streptomycin (PS) (100 U/mL and 100 μg/mL) from InVitrogen (Cat No. 15140-122). Cells were harvested by trypsinization using 0.25% w/v trypsin and 0.1% w/v EDTA from InVitrogen (Cat No. 15-050-057) and then counted in a hemocytometer in duplicate with better than 10% agreement in field counts. Cells were plated at a cell density of 10,000-15,000 cells/well of each Corning Costar 96-well black tissue culture treated microtiter plate (Fisher Cat No. 07-200-627). Cells were grown for 1 h at 37° C., with 5% CO2 in a humidified incubator to allow cell attachment to occur before compound addition.
(§4) Library Member Handling and Preparation for Cytotoxicity Assays: Library members were stored at −20° C. under dessicating conditions before the assay. Library member stocks (100×) were prepared in Corning Costar polypropylene 96-well V-bottom polypropylene microtiter plates (Fisher Cat No. 07-200-695). Five serial 1:2 dilutions were made with anhydrous DMSO at 100× the final concentration used in the assay.
(§5) Library Member Addition: The library member-containing plates were diluted 1:10 with complete cell culture media. The 10× stocks (10 μL) were added to the attached cells using a Biomek FX liquid handler (Beckman-Coulter). Library member stocks (10 μL) were added to 90 μL of cells in each plate to insure full mixing of stocks with culture media using a Beckman FX liquid handler with 96-well head.
(§6) Determination of Cytotoxicity: Cells were incubated with the library members for 72 h before fluorescence reading. Test plates were removed from the incubator and washed 1× in sterile PBS to remove serum containing calcium esterases. Calcein AM reagent (30 μL, […]) was added and the cells were incubated for 30 min at 37° C. Plates were read for emission using a fluorescein filter (excitation 485 nm, emission 535 nm).
(§7) IC50 Calculation: For each library member, at least six dose response experiments were conducted. […] To calculate IC50, percent inhibitions were plotted as a function of log [concentration] and then fit to a four-parameter logistic model that allowed for a variable Hill slope using XLfit 4.1.
(§8) Cytotoxicity Assays. All cell lines except NmuMG were maintained in RPMI 1640 medium supplemented with 10% w/v fetal bovine serum (FBS) and penicillin-streptomycin (PS) (100 U/mL and 100 μg/mL).

SK-OV-3 = assay: cells; type: cell-based, human; conditions: SK-OV-3 cells; read-out: IC50, SK-OV-3
Excerpt: as §2, §3, §4, §5, §6, §7, §8

SF-268 = assay: cells; type: cell-based, human; conditions: SF-268 cells; read-out: IC50, SF-268
Excerpt: as §2, §3, §4, §5, §6, §7, §8

Du145 = assay: High-throughput calcein AM cytotoxicity assay, Du145; type: cell-based, human; conditions: Du145 cells; read-out: IC50, Du145
Excerpt: as §1

HCT-116 = assay: High-throughput calcein AM cytotoxicity assay, HCT-116; type: cell-based, human; conditions: HCT-116 cells; read-out: IC50, HCT-116
Excerpt: as §1

NmuMG = assay: cells; type: cell-based, mouse
Excerpt: as §2, §3, §4, §5, §6, §7, §8

MCF7 = assay: High-throughput calcein AM cytotoxicity assay, MCF7; type: cell-based, human; conditions: MCF7 cells; read-out: IC50, MCF7
Excerpt: as §1

NCI-H460 = assay: High-throughput calcein AM cytotoxicity assay, NCI-H460; type: cell-based, human; conditions: NCI-H460 cells; read-out: IC50, NCI-H460
Excerpt: as §1

[1] = NmuMG mouse mammary normal epithelial control line, read-out: IC50, NmuMG
[2] = NmuMG cells (mouse mammary normal epithelial control line), read-out: IC50

| SMILES | IC50 (Hep3B) | IC50 (A549) | IC50 (NCI/ADR-RES) | IC50 (SK-OV-3) | IC50 (SF-268) | IC50 (Du145) | IC50 (HCT-116) | IC50 (NmuMG; [1]) | IC50 (MCF7) | IC50 (NCI-H460) | IC50 (NmuMG; [2]) |
| --- | --- | --- | --- | --- | --- | --- | --- | --- | --- | --- | --- |
| CON([C@H]1CC[C@@]2(C)[C@H](CC[C@@H]3[C@@H]2CC[C@]2(C)[C@@H](C4=CC(=O)OC4)CC[C@]32O)C1)[C@H]1O[C@@H](CO)[C@H](O)[C@H](O)[C@H]1O [19β, L-altroside] | 2000 nM | 760 nM | 410 nM | 1000 nM | 1200 nM | 2100 nM | 1100 nM | 1000 nM | 1300 nM | 1600 nM | – |
| CON(C1CCC2(C)C(CCC3C2CCC2(C)C(C4=CC(=O)OC4)CCC32O)C1)C1OC(CO)C(O)C(O)C1O [20α, D-altroside] | > 25000 nM | > 25000 nM | > 25000 nM | > 25000 nM | > 25000 nM | > 25000 nM | > 25000 nM | > 25000 nM | > 25000 nM | > 25000 nM | – |
| CON([C@H]1CC[C@@]2(C)[C@H](CC[C@@H]3[C@@H]2CC[C@]2(C)[C@@H](C4=CC(=O)OC4)CC[C@]32O)C1)[C@@H]1O[C@H](CO)[C@@H](O)[C@@H](O)[C@@H]1O [20β, D-altroside] | 350 nM | 540 nM | 900 nM | 1100 nM | 1100 nM | 1200 nM | 1100 nM | 900 nM | 1500 nM | 620 nM | – |
| CON(C1CCC2(C)C(CCC3C2CCC2(C)C(C4=CC(=O)OC4)CCC32O)C1)C1OC(CO)C(O)C(O)C1O [21α, L-galactoside] | > 25000 nM | > 25000 nM | > 25000 nM | > 25000 nM | > 25000 nM | > 25000 nM | > 25000 nM | > 25000 nM | > 25000 nM | > 25000 nM | – |
| CON([C@H]1CC[C@@]2(C)[C@H](CC[C@@H]3[C@@H]2CC[C@]2(C)[C@@H](C4=CC(=O)OC4)CC[C@]32O)C1)[C@H]1O[C@@H](CO)[C@@H](O)[C@@H](O)[C@@H]1O [21β, L-galactoside] | 1300 nM | 900 nM | 1600 nM | 1600 nM | 1400 nM | 2100 nM | 2100 nM | 1000 nM | 1800 nM | 2600 nM | – |
| CON(C1CCC2(C)C(CCC3C2CCC2(C)C(C4=CC(=O)OC4)CCC32O)C1)C1OC(CO)C(O)C(O)C1O [22α, D-galactoside] | > 25000 nM | > 25000 nM | > 25000 nM | > 25000 nM | > 25000 nM | > 25000 nM | > 25000 nM | > 25000 nM | > 25000 nM | > 25000 nM | – |
| CON([C@H]1CC[C@@]2(C)[C@H](CC[C@@H]3[C@@H]2CC[C@]2(C)[C@@H](C4=CC(=O)OC4)CC[C@]32O)C1)[C@@H]1O[C@H](CO)[C@H](O)[C@H](O)[C@H]1O [22β, D-galactoside] | 600 nM | 970 nM | 800 nM | 1500 nM | 1200 nM | 1500 nM | 1800 nM | 1500 nM | 3000 nM | 1600 nM | – |
| CON([C@H]1CC[C@@]2(C)[C@H](CC[C@@H]3[C@@H]2CC[C@]2(C)[C@@H](C4=CC(=O)OC4)CC[C@]32O)C1)[C@@H]1OC[C@@H](O)[C@H](O)[C@H]1O [24β, D-xyloside] | 1200 nM | 1100 nM | 540 nM | 1800 nM | 2100 nM | 820 nM | 1800 nM | 900 nM | 1800 nM | 1800 nM | – |
| CON(C1CCC2(C)C(CCC3C2CCC2(C)C(C4=CC(=O)OC4)CCC32O)C1)C1OC(CO)C(O)C(O)C1O [25α, D-guloside] | > 25000 nM | > 25000 nM | > 25000 nM | > 25000 nM | > 25000 nM | > 25000 nM | > 25000 nM | – | > 25000 nM | > 25000 nM | > 25000 nM |
| CON([C@H]1CC[C@@]2(C)[C@H](CC[C@@H]3[C@@H]2CC[C@]2(C)[C@@H](C4=CC(=O)OC4)CC[C@]32O)C1)[C@@H]1O[C@H](CO)[C@H](O)[C@@H](O)[C@H]1O [25β, D-guloside] | 1900 nM | 2000 nM | 1100 nM | 2200 nM | 2000 nM | 5700 nM | 2100 nM | 1800 nM | 900 nM | 2600 nM | – |
| CON(C1CCC2(C)C(CCC3C2CCC2(C)C(C4=CC(=O)OC4)CCC32O)C1)C1OC(CO)C(O)C(O)C1O [26α, L-mannoside] | > 25000 nM | > 25000 nM | > 25000 nM | > 25000 nM | > 25000 nM | > 25000 nM | > 25000 nM | – | > 25000 nM | > 25000 nM | > 25000 nM |
| CON([C@H]1CC[C@@]2(C)[C@H](CC[C@@H]3[C@@H]2CC[C@]2(C)[C@@H](C4=CC(=O)OC4)CC[C@]32O)C1)[C@H]1O[C@@H](CO)[C@H](O)[C@@H](O)[C@H]1O [26β, L-mannoside] | 2000 nM | 1700 nM | 4800 nM | 3100 nM | 2100 nM | 2000 nM | 4200 nM | 1300 nM | 3000 nM | 1600 nM | – |
| CON(C1CCC2(C)C(CCC3C2CCC2(C)C(C4=CC(=O)OC4)CCC32O)C1)C1OC(CO)C(O)C(O)C1O [27α, D-mannoside] | > 25000 nM | > 25000 nM | > 25000 nM | > 25000 nM | > 25000 nM | > 25000 nM | > 25000 nM | – | > 25000 nM | > 25000 nM | > 25000 nM |
| CON(C1CCC2(C)C(CCC3C2CCC2(C)C(C4=CC(=O)OC4)CCC32O)C1)C1OC(CO)C(O)C(O)C1O [28α, L-idoside] | > 25000 nM | > 25000 nM | > 25000 nM | > 25000 nM | > 25000 nM | > 25000 nM | > 25000 nM | – | > 25000 nM | > 25000 nM | > 25000 nM |
| CON([C@H]1CC[C@@]2(C)[C@H](CC[C@@H]3[C@@H]2CC[C@]2(C)[C@@H](C4=CC(=O)OC4)CC[C@]32O)C1)[C@H]1O[C@@H](CO)[C@@H](O)[C@H](O)[C@H]1O [28β, L-idoside] | 1000 nM | 1140 nM | 610 nM | 2400 nM | 2100 nM | 1900 nM | 3200 nM | 1800 nM | 2600 nM | 1300 nM | – |
